{
  "source": "patent EP4656630A1",
  "about": "“NOVEL COMPOUND AS LYSYL-TRNA SYNTHETASE 1 INHIBITOR, AND USE THEREOF” (Zymedi Co., Ltd., priority 2023, dated 2024)",
  "key": {"[1]": {"test_system": "Raw 264.7 cells", "assay": "LN (Laminin 421)-induced immune cell migration, Transwell", "format": "cell-based", "conditions": "Mus musculus, RAW264.7", "method_in_brief": "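Raw 264.7 cells (1 x 10^5/well) seeded in upper chamber of gelatin-coated 5 µm Transwell with compound at 3 µM. Serum-free DMEM with Laminin 421 (1 µg/ml) in lower chamber. After 24 h, migrated cells fixed, hematoxylin-stained and counted by microscopy; expressed as % inhibition versus control.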"}, "[2]": {"biological_target": "T1, KARS1 and 37LR (Homo sapiens, UniProt Q15046)", "T1 construct": "KARS1 (1-207aa)", "T1 sequence (Q15046 1-207)": "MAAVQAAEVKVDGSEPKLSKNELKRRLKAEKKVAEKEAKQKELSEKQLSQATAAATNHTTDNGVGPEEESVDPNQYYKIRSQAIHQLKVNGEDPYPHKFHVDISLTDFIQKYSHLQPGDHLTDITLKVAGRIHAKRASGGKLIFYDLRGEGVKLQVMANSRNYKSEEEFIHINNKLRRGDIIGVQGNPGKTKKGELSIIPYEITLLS", "assay": "Cell-free ELISA of KARS1 and 37LR (laminin receptor) binding", "conditions": "10 µM compound, 1 hour, plate coated with KARS1 (1-207aa), LRF", "protocol": "Next, based on the mechanism of action, a cell-free ELISA analysis was conducted to select compounds with high inhibitory activity on the binding of KARS1 and LR (laminin receptor)."}, "[3]": {"test_system": "Raw264.7 cells", "assay": "KARS1-induced trans-migration assay", "format": "cell-based, mouse", "conditions": "Mus musculus, RAW264.7", "method_in_brief": "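Mouse Raw264.7 macrophage trans-migration induced by externally added KARS1 protein in place of laminin. Candidates with high inhibition at 1 µM were then tested at 0.1~4 µM.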"}, "[4]": {"assay": "Microsomal metabolic stability, rat", "format": "in vitro ADME", "protocol": "(§1) Metabolic stability (MS) evaluation was conducted for the selected compounds by measuring in vitro stability in two species, rat and human, according to the microsomal stability measurement method. As a result, it was identified that MS varied depending on the transformation of parts A, B, and C."}, "[5]": {"assay": "Microsomal metabolic stability, human", "format": "in vitro ADME", "protocol": "as §1"}, "[6]": {"assay": "S9 metabolic stability, mouse", "format": "in vitro ADME", "protocol": "(§2) Among these, secondary MS measurements were conducted for Compound 25 (C0047), Compound 43 (C0216), and C0001 using the S9 method. This test measured the remaining % at 30, 45, and 60 minutes for four species: mouse, rat, dog, and human."}, "[7]": {"assay": "S9 metabolic stability, rat", "format": "in vitro ADME", "protocol": "as §2"}, "[8]": {"assay": "S9 metabolic stability, dog", "format": "in vitro ADME", "protocol": "as §2"}, "[9]": {"assay": "S9 metabolic stability, human", "format": "in vitro ADME", "protocol": "as §2"}, "[10]": {"assay": "Rat pharmacokinetics (po and iv) and bioavailability", "format": "in vivo", "conditions": "for Cmax / Tmax / half-life / AUC: in vivo", "protocol": "For this purpose, formulations suitable for peroral administration (po) and intravenous injection (iv) for each compound were first selected to ensure stable PK progression.\nThe formulation was selected under the condition of maintaining a clear solution for more than 1 hour at 10 and 30 mpk doses based on po, and the iv formulation was modified when iv use was not possible based on po (Table 8).\nTo confirm the oral administration potential of the selected compounds, 10 mpk rat po PK was conducted. The PK profile and key indicators after administering 10 mpk to five compounds, C0001, 25, 41, 42, and 43, are shown in Figure 3 and Table 9.\nBased on the previous 10 mpk po rat PK results, 30 mpk po rat PK was conducted for four compounds, C0001, 25, 41, and 43, to confirm changes in the blood PK profile of the substances with increasing doses.\nFor these compounds, 2 mpk iv rat PK was conducted to calculate bioavailability (BA) (Table 11)."}, "[11]": {"assay": "Organ distribution", "format": "in vivo", "parameters": "Organ distribution Plasma (ng/ml): concentration or dose not given beside the values"}},
  "data": [
    {"smiles": "COc1ccc(CCN(Cc2ccc(C#CC(=O)O)cc2)c2nc3cccc(F)c3s2)cc1", "note": "[Compound C0001, reference compound]", "values": [
      {"measurement": "inhibition at 3 µM", "setting": "[1]; 3 µM compound, LN (Laminin 421 1 µg/ml), 24 hours, % inhibition compared to control group, read-out: Migration inhibitor % (3uM)", "result": 41.9, "unit": "%"},
      {"measurement": "EC50", "setting": "[1]; LN-induced cell migration, read-out: EC50 for cell migration inhibition induced by LN", "result": 7.93, "unit": "µM"},
      {"measurement": "inhibition at 10 µM", "setting": "[2]", "result": 64.5, "unit": "%"},
      {"measurement": "inhibition at 1 µM", "setting": "[3]; 1 µM compound, read-out: KARS1-induced Raw264.7 cell migration (% inhibition, 1uM)", "result": 68.7, "unit": "%"},
      {"measurement": "EC50", "setting": "[3]; KARS1-induced cell migration, 0.1~4 µM", "result": 0.75, "unit": "µM"},
      {"measurement": "Metabolic stability (% remaining at 30 min) Rat", "setting": "[4]", "result": 50, "unit": "%"},
      {"measurement": "Metabolic stability (% remaining at 30 min) Human", "setting": "[5]", "result": 56, "unit": "%"},
      {"measurement": "Metabolic stability (% remaining at each time) Mouse (min) 30", "setting": "[6]; 30 min", "result": 67.1, "unit": "%"},
      {"measurement": "Metabolic stability (% remaining at each time) Mouse (min) 45", "setting": "[6]; 45 min", "result": 62.3, "unit": "%"},
      {"measurement": "Metabolic stability (% remaining at each time) Mouse (min) 60", "setting": "[6]; 60 min", "result": 49.6, "unit": "%"},
      {"measurement": "Metabolic stability (% remaining at each time) Rat (min) 30", "setting": "[7]; 30 min", "result": 79.6, "unit": "%"},
      {"measurement": "Metabolic stability (% remaining at each time) Rat (min) 45", "setting": "[7]; 45 min", "result": 76.6, "unit": "%"},
      {"measurement": "Metabolic stability (% remaining at each time) Rat (min) 60", "setting": "[7]; 60 min", "result": 83.1, "unit": "%"},
      {"measurement": "Metabolic stability (% remaining at each time) Dog (min) 30", "setting": "[8]; 30 min", "result": 80.7, "unit": "%"},
      {"measurement": "Metabolic stability (% remaining at each time) Dog (min) 45", "setting": "[8]; 45 min", "result": 85.6, "unit": "%"},
      {"measurement": "Metabolic stability (% remaining at each time) Dog (min) 60", "setting": "[8]; 60 min", "result": 75.9, "unit": "%"},
      {"measurement": "Metabolic stability (% remaining at each time) Human (min) 30", "setting": "[9]; 30 min", "result": 59.1, "unit": "%"},
      {"measurement": "Metabolic stability (% remaining at each time) Human (min) 45", "setting": "[9]; 45 min", "result": 50.2, "unit": "%"},
      {"measurement": "Metabolic stability (% remaining at each time) Human (min) 60", "setting": "[9]; 60 min", "result": 46.2, "unit": "%"},
      {"measurement": "Cmax", "setting": "[10]; 10 mg/kg, po, 10 mpk", "result": 2020, "unit": "ng/mL"},
      {"measurement": "Tmax", "setting": "[10]; 10 mg/kg, po, 10 mpk", "result": 0.5, "unit": "h"},
      {"measurement": "half-life", "setting": "[10]; 10 mg/kg, po, 10 mpk", "result": 1.83, "unit": "h"},
      {"measurement": "Cmax", "setting": "[10]; 30 mg/kg, po, 30 mpk", "result": 4720, "unit": "ng/mL"},
      {"measurement": "Tmax", "setting": "[10]; 30 mg/kg, po, 30 mpk", "result": 2, "unit": "h"},
      {"measurement": "half-life", "setting": "[10]; 30 mg/kg, po, 30 mpk", "result": 2.67, "unit": "h"},
      {"measurement": "AUC", "setting": "[10]; iv, 2 mg/kg, 2 mpk", "result": 3440, "unit": "ng·h/mL"},
      {"measurement": "AUC", "setting": "[10]; po, 10 mg/kg, 10 mpk", "result": "> 5000", "unit": "ng·h/mL"},
      {"measurement": "AUC", "setting": "[10]; po, 10 mg/kg, 10 mpk (Table 11)", "result": 5830, "unit": "ng·h/mL"},
      {"measurement": "AUC", "setting": "[10]; po, 30 mg/kg, 30 mpk", "result": 25600, "unit": "ng·h/mL"},
      {"measurement": "AUC", "setting": "[10]; po, 30 mg/kg, 30 mpk (Table 11)", "result": 25600, "unit": "ng·h/mL"},
      {"measurement": "BA (%)", "setting": "[10]; po, 10 mpk against iv 2 mpk", "result": 33.9, "unit": "%"},
      {"measurement": "BA (%)", "setting": "[10]; po, 30 mpk against iv 2 mpk", "result": 49.6, "unit": "%"},
      {"measurement": "Organ distribution (ratio per plasma) Brain", "setting": "[11]; 0.5 h", "result": 0.02},
      {"measurement": "Organ distribution (ratio per plasma) Brain", "setting": "[11]; 6.0 h", "result": 0.01},
      {"measurement": "Organ distribution (ratio per plasma) Heart", "setting": "[11]; 0.5 h", "result": 0.06},
      {"measurement": "Organ distribution (ratio per plasma) Heart", "setting": "[11]; 6.0 h", "result": 0.03},
      {"measurement": "Organ distribution (ratio per plasma) Kidney", "setting": "[11]; 0.5 h", "result": "0.01 / 0.01"},
      {"measurement": "Organ distribution (ratio per plasma) Kidney", "setting": "[11]; 6.0 h", "result": "0.01 / 0.01"},
      {"measurement": "Organ distribution (ratio per plasma) Liver", "setting": "[11]; 0.5 h", "result": "19.1 / 19.1"},
      {"measurement": "Organ distribution (ratio per plasma) Liver", "setting": "[11]; 6.0 h", "result": "19.1 / 19.1"},
      {"measurement": "Organ distribution (ratio per plasma) Lung", "setting": "[11]; 0.5 h", "result": 0.08},
      {"measurement": "Organ distribution (ratio per plasma) Lung", "setting": "[11]; 6.0 h", "result": 0.06},
      {"measurement": "Organ distribution Plasma (ng/ml)", "setting": "[11]; 0.5 h", "result": "3,145 ng/ml"},
      {"measurement": "Organ distribution Plasma (ng/ml)", "setting": "[11]; 6.0 h", "result": "1,769 ng/ml"}
    ]}
  ]
}
